We go through one compound from patent US11471674B2, “Electroosmotic convection-enhanced delivery system” (University of Pittsburgh—Of the Commonwealth System of …, priority 2012, dated 2022).

A short description of data set [1]: In vivo electrokinetic infusion via hollow fiber probe, volume of distribution. The settings on record: rat striatum, 25 μA, 45 minutes. An excerpt: In the experiments described below, the distal end of the hollow fiber catheter was a hollow fiber having a 280 μm inside and 360 μm outside diameter, and a length of 3-4 mm (724). A 10- or 15-cm long fused silica catheter ([…] and 670 μm outside diameters, 720) directs fluid to the hollow fiber probe. The 100 μm inside diameter infusion catheter 720 was filled with the fluorophore solution of interest, as detailed below, in a glucose-free HEPES-buffered salt solution (GF-HBSS), containing in mM: 143.4 NaCl, 5 HEPES, 5.4 KCl, 1.2 MgSO4, 1.2 NaH2PO4, and 2.0 CaCl2. The probe was placed in a vial containing the same solution (704) through a septum. […]
After the electrokinetic infusion period, the rats underwent rapid transcardial perfusion with 250 mL of 8% cold paraformaldehyde in phosphate buffer solution. […] Vibratome sectioning was quantitative, with no discarded tissue between slices with a visible fluorophore spot. […] The 200 μm thick coronal slices were mounted onto glass slides and imaged with an inverted fluorescence microscope.
The volumes of distribution from the infusions were determined by measuring the fluorescence intensities in each coronal slice. The fluorescent area in each image was determined by counting pixels above a threshold value dictated by the noise level in the background (nonfluorescent portion of the image). […]

A short description of data set [2]: In vivo electrokinetic infusion via open tube catheter, volume of distribution. The note with it: rat thalamus, 25.0 μA for 45 minutes. As for the experimental part:
Male Sprague-Dawley rats, with weights ranging from 260 to 290 g, were anesthetized with isoflurane, and wrapped in a 37° C. homeothermic blanket. An incisor bar was set at 0 mm at the interaural line. Rats underwent aseptic stereotactic surgery, whereby bilateral craniotomies were made to position an infusion catheter and counter catheter into the thalami bilaterally (from bregma: 4.0 mm lateral, 1.3 mm posterior, and 5.0 mm below the dura) for volumetric analysis. The capillaries were also implanted into the hippocampi bilaterally (from bregma: 4.0 mm lateral, 1.3 mm posterior, and 2.5 mm below the dura). […]
After the electrokinetic infusion period, the rats underwent rapid transcardial perfusion with 250 mL of 8% cold paraformaldehyde in PBS. […] Vibratome sectioning was quantitative, with no discarded tissue between slices with a visible fluorophore spot. […] The 300 μm thick coronal slices were mounted onto glass slides and imaged with an inverted fluorescence microscope. Image sequences were acquired and the fluorescent intensity was measured.
The volumes of distribution from the infusions were determined by evaluating the fluorescence intensities amongst the coronal tissue slices. The overall maximum fluorescence intensity (I0) at the infusion catheter implantation site was determined for each rat. […]

A short description of data set [3]: Electrophoretic mobility of infusates. The data set is classed as physicochemical. The note with it: N = 3. The text has this: As noted above, three solutes of varying molecular weight and electrophoretic mobilities were utilized for in vivo infusions. BODIPY labeled 10 kDa dextran (B10) and TR70 were selected because of their dissimilar molecular weights, their ability to be resolved spectroscopically, and their small electrophoretic mobilities, as shown in Table 1 below (Vd at 10% of I0 calculated as in paragraph 25). The electrophoretic mobility is the ratio of the velocity that a molecule adopts in the presence of an electric field of a particular magnitude. For comparison, the electroosmotic mobility is the velocity that the fluid adopts in the presence of an electric field. The […] is directly proportional to the magnitude of the zeta potential governing the electroosmotic flow which we estimate to be −22.8 mV (Guy, Y. et al., “Determination of zeta-potential in rat organotypic hippocampal cultures.” Biophysical Journal, (2008) 94: 4561-9; Guy et al., “Determination of Zeta-Potential and Tortuosity in Rat Organotypic Hippocampal Cultures from Electroosmotic Velocity Measurements under Feedback Control.” Anal. Chem. (2009) 81:3001-7, both of which are hereby incorporated by reference). The electroosmotic mobility of the extracellular fluid in brain is 1.7×10^−8 m^2/Vs. This is much larger than the electrophoretic mobilities of the two fluorescent dextrans in Table 1. […]

Molecules are shown by their SMILES.

Consider `[Ru+2].c1ccc(-c2ccccn2)nc1.c1ccc(-c2ccccn2)nc1.c1ccc(-c2ccccn2)nc1` [Ru(bpy)3^2+, tris(2,2′-bipyridyl)ruthenium(II)], for which the “volume of distribution (fluorescent volume)” value in data set [1] came out at 9.0 µL. In addition, the Vd (in general, the apparent volume that relates the amount in the body to the concentration in plasma or blood) at 10% of I0 in data set [2] (calculated) is 260 µL. In data set [2] (open tube catheter, mean±SEM), the “Vd at 25% of I0” value was 13.0 ± 2.0 µL. The “Electrophoretic Mobility (μep)” value in data set [3] is 25.86 ± 0.02 10^−9 m^2/Vs.
